Source: US10800789B2, “Antiviral compounds” (Gilead Pharmasset LLC, priority 2012, dated 2020)
Read-outs that look alike come from different tables or passages of the source.

Assays:
[1] = test system: stable HCV 2a JFH-1 Rluc replicon cells (L31 present in NS5A); assay: Renilla luciferase HCV replicon reporter assay, genotype 2a JFH-1; type: cell-based; conditions: Hepatitis C virus
In short: (§1)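 Cells carrying the stable or transiently transfected (Huh-Lunet) dicistronic RLuc replicons received 3-fold serial compound dilutions from 10 mM DMSO stocks. After 72 h, cells were lysed and Renilla luciferase read. DMSO served as the no-inhibition control and ITMN-191 above 100×EC50 as the positive control; EC50 by non-linear regression.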

[2] = test system: stable HCV 1b RLuc replicon cells (dicistronic genotype 1b Con1 replicon); assay: Renilla luciferase HCV replicon reporter assay, genotype 1b; type: cell-based; conditions: Hepatitis C virus, 72 h, stable 1b Con1 RLuc replicon cells, 72 hours; read-out: 1b
In short: as §1

[3] = test system: NS5A chimeric genotype 1b Con1 replicon with genotype 3a S52 strain NS5A gene; assay: Replicon assay, genotype 3a NS5A chimera; type: cell-based, HCV; conditions: Hepatitis C virus
[4] = test system: NS5A chimeric genotype 2a JFH-1 replicon with genotype 2a J6 strain NS5A gene (M31 present); assay: Replicon assay, genotype 2a J6 NS5A chimera; type: cell-based, HCV; conditions: Hepatitis C virus
In short: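 EC50 was fitted by non-linear regression to Renilla luciferase signal after 72 h of exposure to 3-fold serially diluted compound (10 mM DMSO stocks). Controls were DMSO (none) and ITMN-191 above 100×EC50 (full). Chimeric 2a replicons were used either stable or transiently transfected into Huh-Lunet cells.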

[5] = test system: NS5A chimeric genotype 1b Con1 replicon with genotype 4a ED43 strain NS5A gene; assay: Replicon assay, genotype 4a NS5A chimera; type: cell-based, HCV; conditions: Hepatitis C virus
[6] = test system: stable HCV 1a RLuc replicon cells (dicistronic genotype 1a H77 replicon); assay: Renilla luciferase HCV replicon reporter assay, genotype 1a; type: cell-based; conditions: Hepatitis C virus, 72 h, stable 1a H77 RLuc replicon cells
In short: as §1

[7] = test system: NS5A chimeric genotype 2a JFH-1 replicon with genotype 2b MD2b-1 strain NS5A gene (M31 present); assay: Replicon assay, genotype 2b NS5A chimera; type: cell-based, HCV; conditions: Hepatitis C virus
In short: as §1

[8] = read-out: 2a JFH (nM), genotype 2a JFH-1 replicon (L31 in NS5A), stable cells
[9] = read-out: 2a JFH, stable 2a JFH-1 Rluc replicon cells, L31 in NS5A, activity range
[10] = read-out: 3a (s) (nM), genotype 3a NS5A chimeric replicon, stable replicon cells (s)
[11] = read-out: 3a (s), (s), activity range
[12] = read-out: 2a J6 (t) (nM), genotype 2a J6 NS5A chimeric replicon (M31), transiently transfected (t) into Huh-Lunet cells
[13] = read-out: 2a J6 (t), transiently transfected (t) into Huh-Lunet cells, activity range
[14] = read-out: 4a (s) (nM), genotype 4a NS5A chimeric replicon, stable replicon cells (s)
[15] = read-out: 4a (s), (s), activity range
[16] = 2BS, read-out: 2b (s), stably replicating replicon cells (s), activity range
[17] = read-out: 2b (s) (nM), genotype 2b MD2b-1 NS5A chimeric replicon (M31), stably replicating replicon cells (s)

| SMILES | EC50 [1, 8] | EC50 [1, 9] | EC50 [2] | EC50 [3, 10] | EC50 [3, 11] | EC50 ([3]; read-out: 3a (t) (nM), genotype 3a NS5A chimeric replicon, transiently transfected (t)) | EC50 ([3]; read-out: 3a (t), transiently transfected (t) into Huh-Lunet cells, activity range) | EC50 [4, 12] | EC50 [4, 13] | EC50 [5, 14] | EC50 [5, 15] | EC50 [6] | EC50 ([6]; activity range) | EC50 [7, 16] | EC50 [7, 17] |
| --- | --- | --- | --- | --- | --- | --- | --- | --- | --- | --- | --- | --- | --- | --- | --- |
| COC(=O)N[C@H](C(=O)N1[C@@H](C)CC[C@H]1c1nc(C2CC2)c(-c2ccc3c(c2)COc2cc4c(ccc5nc([C@@H]6CC[C@H](C)N6C(=O)[C@@H](NC(=O)OC)[C@@H](C)OC)[nH]c54)cc2-3)[nH]1)[C@@H](C)OC [GC, Methyl [(2S,3R)-1-{(2S,5S)-2-[9-(4-cyclopropyl-2-{(2S,5S)-1-[N-(methoxycarbonyl)-O-methyl-L-threonyl]-5-methylpyrrolidin-2-yl}-1H-imidazol-5-yl)-1,11-dihydroisochromeno[4′,3′:6,7]naphtho[1,2-d]imidazol-2-yl]-5-methylpyrrolidin-1-yl}-3-methoxy-1-oxobutan-2-yl]carbamate] | 0.063 nM | < 0.1 nM | 0.022 nM | 0.14 nM | 0.1 to 0.999 nM | 0.032 nM | < 0.1 nM | 0.181 nM | 0.1 to 0.999 nM | 0.013 nM | < 0.1 nM | 0.013 nM | < 0.1 nM | 0.1 to 0.999 nM | 0.117 nM |
| COC(=O)N[C@H](C(=O)N1[C@@H](C)CC[C@H]1c1ncc(-c2ccc3c(c2)COc2cc4c(ccc5nc([C@@H]6CC[C@H](C)N6C(=O)[C@@H](NC(=O)OC)[C@H](C)OC)[nH]c54)cc2-3)[nH]1)[C@H](C)OC [GE] | 0.104 nM | 0.1 to 0.999 nM | 0.062 nM | 0.445 nM | 0.1 to 0.999 nM |  |  | 0.508 nM | 0.1 to 0.999 nM | 0.026 nM | < 0.1 nM | 0.043 nM | < 0.1 nM | 0.1 to 0.999 nM | 0.772 nM |
| CC[C@H](C)[C@H](NC(=O)OC)C(=O)N1[C@@H](C)CC[C@H]1c1ncc(-c2ccc3c(c2)COc2cc4c(ccc5nc([C@@H]6CC[C@H](C)N6C(=O)[C@@H](NC(=O)OC)C(C)C)[nH]c54)cc2-3)[nH]1 [GL] | 0.024 nM | < 0.1 nM | 0.021 nM | 0.054 nM | < 0.1 nM |  |  | 0.364 nM | 0.1 to 0.999 nM | 0.022 nM | < 0.1 nM | 0.015 nM | < 0.1 nM | 0.1 to 0.999 nM | 0.577 nM |
| CC[C@H](C)[C@H](NC(=O)OC)C(=O)N1[C@@H](C)CC[C@H]1c1nc2ccc3cc4c(cc3c2[nH]1)OCc1cc(-c2cnc([C@@H]3CC[C@H](C)N3C(=O)[C@@H](NC(=O)OC)C(C)C)[nH]2)ccc1-4 [GM] | 0.016 nM | < 0.1 nM | 0.016 nM | 0.048 nM | < 0.1 nM |  |  | 0.222 nM | 0.1 to 0.999 nM | 0.015 nM | < 0.1 nM | 0.012 nM | < 0.1 nM | 0.1 to 0.999 nM | 0.658 nM |
| COC(=O)N[C@H](C(=O)N1[C@@H](C)CC[C@H]1c1nc2ccc3cc4c(cc3c2[nH]1)OCc1cc(-c2cnc([C@@H]3CC[C@H](C)N3C(=O)[C@@H](NC(=O)OC)[C@@H](C)OC(F)F)[nH]2)ccc1-4)[C@@H](C)OC [GN] | 0.017 nM | < 0.1 nM | 0.023 nM | 0.072 nM | < 0.1 nM |  |  | 0.033 nM | < 0.1 nM | 0.016 nM | < 0.1 nM | 0.013 nM | < 0.1 nM | 0.1 to 0.999 nM | 0.247 nM |
| CC[C@H]1CC[C@@H](c2ncc(-c3ccc4c(c3)COc3cc5c(ccc6nc([C@@H]7C[C@H](C)CN7C(=O)[C@@H](NC(=O)OC)[C@@H](C)OC)[nH]c65)cc3-4)[nH]2)N1C(=O)[C@@H](NC(=O)OC)C(C)C [GO] | 0.025 nM | < 0.1 nM | 0.028 nM | 1.28 nM | 1 to 44 nM |  |  | 0.112 nM | 0.1 to 0.999 nM | 0.029 nM | < 0.1 nM | 0.021 nM | < 0.1 nM | 0.1 to 0.999 nM | 0.775 nM |
| CC[C@H]1CC[C@@H](c2ncc(-c3ccc4c(c3)COc3cc5c(ccc6nc([C@@H]7CC[C@H](C)N7C(=O)[C@@H](NC(=O)OC)[C@@H](C)OC)[nH]c65)cc3-4)[nH]2)N1C(=O)[C@H](C)NC(=O)OC [GP] | 0.027 nM | < 0.1 nM | 0.027 nM | 0.571 nM | 0.1 to 0.999 nM |  |  | 1.07 nM | 1 to 44 nM | 0.031 nM | < 0.1 nM | 0.018 nM | < 0.1 nM | 1 to 44 nM | 2.33 nM |
| CC[C@H](C)[C@H](NC(=O)OC)C(=O)N1C[C@@H](C)C[C@H]1c1nc2ccc3cc4c(cc3c2[nH]1)OCc1cc(-c2cnc([C@@H]3CC[C@H](C)N3C(=O)[C@@H](NC(=O)OC)C(C)C)[nH]2)ccc1-4 [GR] | 0.025 nM | < 0.1 nM | 0.022 nM | 0.159 nM | 0.1 to 0.999 nM |  |  | 0.198 nM | 0.1 to 0.999 nM | 0.025 nM | < 0.1 nM | 0.016 nM | < 0.1 nM | 0.1 to 0.999 nM | 0.794 nM |
| CC[C@H]1CC[C@@H](c2nc3ccc4cc5c(cc4c3[nH]2)OCc2cc(-c3cnc([C@@H]4CC[C@H](C)N4C(=O)[C@@H](NC(=O)OC)C(C)C)[nH]3)ccc2-5)N1C(=O)[C@@H](NC(=O)OC)[C@@H](C)O [GS] | 0.017 nM | < 0.1 nM | 0.021 nM | 0.271 nM | 0.1 to 0.999 nM |  |  | 0.116 nM | 0.1 to 0.999 nM | 0.017 nM | < 0.1 nM | 0.018 nM | < 0.1 nM | 0.1 to 0.999 nM | 0.372 nM |
| CC[C@H]1C[C@@H](c2nc3ccc4cc5c(cc4c3[nH]2)OCc2cc(-c3cnc([C@@H]4CC[C@H](C)N4C(=O)[C@@H](NC(=O)OC)C(C)C)[nH]3)ccc2-5)N(C(=O)[C@@H](NC(=O)OC)C(C)C)C1 [GT] | 0.028 nM | < 0.1 nM | 0.021 nM | 0.187 nM | 0.1 to 0.999 nM |  |  | 0.257 nM | 0.1 to 0.999 nM | 0.031 nM | < 0.1 nM | 0.017 nM | < 0.1 nM | 1 to 44 nM | 1.73 nM |
